The values that follow come from US20120035531A1, “ON-DEMAND AND REVERSIBLE DRUG RELEASE BY EXTERNAL CUE” (PRESIDENT AND FELLOWS OF HARVARD COLLEGE, priority 2009, published 2012).

Series [1] can be described thus: In vitro release of encapsulated Mitoxantrone from alginate hydrogel with ultrasound. It is filed as physicochemical. As to the method:
Alginate hydrogels containing 0.825 mg/mL of Mitoxantrone were prepared by mixing alginate aqueous solution with slurries of CaSO4, to a final concentration of 50 mM Ca^2+ and 2% alginate (w/w) polymer. The gel was cast between two glass slides and cut into discs of approximately 10 mm diameter and 2 mm thickness. Thereafter, hydrogels were swollen overnight in the commercially available Dulbecco's Modified Eagle's Medium (DMEM). Hydrogel disks so prepared were next placed in a 15 mL plastic tube with 5 ml of DMEM. One group of the sample hydrogels were subjected to low-frequency ultrasound with frequency of 20 KHz and intensity of 1 watt for 5 min per hour. A further group comprising control hydrogels, similarly prepared, were not subjected to any stimulation. FIGS. 1A and 1B show the power profiles of ultrasound on the two groups of hydrogels.

Another series concerns MCF7 breast cancer cells. Put plainly: Bioactivity of ultrasound-released Mitoxantrone: MCF7 cell viability. Type of series: cell-based. The note with it: 24 hours, ultrasound-released vs fresh Mitoxantrone solution 0.1 to 20 μg/mL. The protocol: The bioactivity of the released Mitoxantrone in example 1 was studied by incubating MCF7 breast cancer cells in the Mitoxantrone solution, and measuring the cell viability after 24 hours. Fresh Mitoxantrone solutions (unmixed with polymer) with various concentrations ranging from 0.1 to 20 μg/mL were also used to incubate the same number of MCF7 breast cancer cells.

Regarding `O=C1c2c(O)ccc(O)c2C(=O)c2c(NCCNCCO)ccc(NCCNCCO)c21` [Mitoxantrone], the “level of enhanced release rates across ultrasound pulses” value in series [1] (20 KHz, 1 watt, 5 min per hour) is recorded as “all on the same level”. Further, the “increase of cumulative release amount” value in series [1] (5 min of ultrasound per hour, 20 KHz, 1 watt, vs control hydrogels) is listed as approximately 70%. Besides, the “increase of release rates by ultrasound stimulation” value in series [1] (alginate hydrogel 0.825 mg/mL Mitoxantrone in DMEM, 20 KHz, 1 watt, 5 min per hour, vs no stimulation) is “approximately 10 times”. Further, in series [1] (alginate hydrogel in DMEM), the “rate of release after removing the ultrasound” value was “decayed to negligible levels”. For the same compound, in the series with MCF7 breast cancer cells, the cell viability result was “reduces cell viability by the same amount as a fresh Mitoxantrone solution of equivalent concentration”.
